pIC50: −log10 of the molar value.
What was measured:
PTP1B = target: T1, PTP1B (Homo sapiens, UniProt P18031); test: OMFP phosphatase assay, PTP1B; assay type: biochemical; settings: n=3, OMFP substrate, 15.2 nM-300 μM; read-out: mean in vitro values, PTP1B
T1 sequence (P18031 1-435): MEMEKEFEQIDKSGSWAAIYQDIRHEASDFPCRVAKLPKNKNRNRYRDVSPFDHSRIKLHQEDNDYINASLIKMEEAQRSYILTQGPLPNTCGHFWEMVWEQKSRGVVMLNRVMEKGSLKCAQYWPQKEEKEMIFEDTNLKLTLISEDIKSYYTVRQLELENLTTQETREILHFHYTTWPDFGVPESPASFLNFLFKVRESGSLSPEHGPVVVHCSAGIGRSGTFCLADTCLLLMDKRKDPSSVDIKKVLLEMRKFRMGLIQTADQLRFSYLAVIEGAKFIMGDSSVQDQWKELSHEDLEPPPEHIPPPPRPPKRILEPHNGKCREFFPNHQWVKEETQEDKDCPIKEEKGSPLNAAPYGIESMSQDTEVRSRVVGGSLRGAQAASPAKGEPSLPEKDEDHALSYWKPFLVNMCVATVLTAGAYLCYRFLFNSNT
Description: Enzyme activities in the presence or absence of BCI were measured using the artificial substrate […] at concentrations equal to the Km of each enzyme (Cdc25B, PTP1B & Dusp3/VHR) and at optimal pH for individual enzyme activity in a 96-well microtiter plate assay based on previously described methods by Lazo et al. (J Med Chem 44, 4042-9 (2001) and Lazo, J. S. et al. Bioorg Med Chem 14, 5643-50 (2006)). Briefly, the standard assay conditions contained 0.02 mg/ml OMFP in assay buffer (30 mM Tris-HCl (pH8.0), 75 mM NaCl, 1 mM EDTA, 0.33% BSA and 1 mM DTT). Fluorescence emission was measured after a sixty-minute incubation period at ambient temperature using a multiwell plate reader (SpectraMax m5, […]; excitation 485 nm, emission 525 nm). Sodium orthovanadate (100 μM) was used as a positive control for full phosphatase inhibition. IC50 concentrations were determined from three experiments using 10 concentrations of BCI ranging from 300 μM to 15.2 nM and GraphPad Prism 5.0 software.

Dusp6 = target: T2, Dusp6 (Homo sapiens, UniProt Q16828); test: Basal Dusp6 dephosphorylation of OMFP; assay type: biochemical; set-up: His; made in house; settings: 100 μM
T2 sequence (Q16828 1-381): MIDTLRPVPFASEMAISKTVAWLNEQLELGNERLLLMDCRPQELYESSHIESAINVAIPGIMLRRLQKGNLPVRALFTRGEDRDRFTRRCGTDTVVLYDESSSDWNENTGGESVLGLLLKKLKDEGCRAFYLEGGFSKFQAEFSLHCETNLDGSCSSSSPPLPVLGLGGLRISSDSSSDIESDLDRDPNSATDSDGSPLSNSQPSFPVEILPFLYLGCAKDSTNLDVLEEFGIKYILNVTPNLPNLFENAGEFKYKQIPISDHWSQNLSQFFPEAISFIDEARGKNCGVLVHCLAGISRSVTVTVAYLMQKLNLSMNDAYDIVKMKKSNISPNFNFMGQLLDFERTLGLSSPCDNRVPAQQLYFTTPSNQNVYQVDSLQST
Description: For OMFP based ERK2 induced activation of Dusp6, recombinant His-tagged Dusp6 was expressed from a bacterial expression vector and 250 ng were incubated with the indicated concentrations of NSC95397 or BCI. OMFP was added at its apparent Km (100 μM) (Vogt, A. et al. J Biol Chem 280, 19078-86 (2005)). The final reaction volume was 15 μl. After 1 h at RT, OMF fluorescence was measured on an M5 multimode reader (Molecular Devices) at excitation/emission wavelengths of 485/525 nm. To assay activated Dusp6, 210 ng or 2.1 μg of recombinant ERK2 (Cell signaling) were added to Dusp6(210 ng)/BCI(100 μM) mixtures to measure activation at 1:1 and 1:10 ratio of substrate to enzyme. OMFP was immediately added and fluorescence (ex485/em525 nm) was read every 10 min for 130 min. Fold activation was calculated at 60 mins in each experiment.

[1] = tested on: XFD (dominant negative FGF receptor); test: Zebrafish mRNA microinjection, rescue of sef expression, XFD; assay type: in vivo; settings: 5 μM BCI, shield stage
Description: dusp6 and XFD mRNA for microinjection studies were generated as previously described (Tsang, M. et al. Development 131, 2769-79 (2004)). Both Dusp5 and Spry4 ORFs were amplified by RT-PCR from 24 hpf zebrafish with the following primers: […]
Amplified PCR products were subcloned into pCS2+, sequenced verified and mRNAs were synthesized as described previously. Embryos were injected with 500 pg mRNA at the 1-2 cell stage, treated with 5 μM BCI at the 1000-cell stage and fixed at shield stage for in situ hybridization.
In situ hybridization experiments were carried out as described previously (Kudoh, T. et al. Genome Res 11, 1979-87 (2001)). The probes eng3, krox20, sef, dusp6, gata4, nkx2.5, cmlc2, vmhc, scl, etsrp and hand2 were generated with a RNA labeling kit (Roche) (Tsang, M. et al. Development 131, 2769-79 (2004); Chen, J. N. et al. Development 122, 3809-16 (1996); Ekker, M., et al. Development 116, 1001-10 (1992); Liao, E. C. et al. Genes Dev 12, 621-6 (1998); Oxtoby, E. et al. Nucleic Acids Res 21, 1087-95 (1993); Pham, V. N. et al. Dev Biol 303, 772-83 (2007); Tsang, M., et al. Nat Cell Biol 4, 165-9 (2002); Yelon, D., et al. Dev Biol 214, 23-37 (1999); and Yelon, D. et al. Development 127, 2573-82 (2000)). The double fluorescent in situ hybridization protocol was described by Schoenbeck et al. (Dev Cell 13, 254-67 (2007)). […]

O=C1/C(=C/c2ccccc2)C(NC2CCCCC2)c2ccccc21 (stereo not drawn) [Compound 3, (E)-2-benzylidene-3-(cyclohexylamino)-2,3-dihydro-1H-inden-1-one]
pIC50 (PTP1B): < 3.52 | inhibition of basal Dusp6 activity toward OMFP (Dusp6): did not inhibit basal Dusp6 activity | reversal of effects of XFD mRNA on sef expression [1]: did not reverse
